Results published in patent US7208485B2, “Crystalline forms of halobetasol propionate” (Chemagis Ltd., priority 2003, dated 2007).

Experiment: Thermal solid-state stability / phase transition on heating (hot-stage microscopy, DSC)
Type: physicochemical
Details: for temperature of solid-solid phase transition upon heating: heating at ambient pressure, observed by hot-stage microscopy and as DSC peak
Description: Differential scanning calorimetry experiments were run on DuPont instruments model DSC 910, with software version 4.1C. Samples were analyzed inside 40 μl crimped Aluminum pan. Heating rate for all samples was 5° C./min. Since the melting of halobetasol propionate is accompanied by decomposition, the heating process was stopped slightly after the beginning of melting, in order to avoid damage to the measuring apparatus caused by decomposition products.

| Structure (SMILES) | temperature of solid-solid phase transition upon heating | also measured |
| --- | --- | --- |
| CCC(=O)O[C@]1(C(=O)CCl)[C@@H](C)CC2[C@@H]3C[C@H](F)C4=CC(=O)C=C[C@]4(C)[C@@]3(F)[C@@H](O)C[C@@]21C (some centres unmarked) [Form III, halobetasol propionate Form III] | 160 °C |  |
| CCC(=O)O[C@]1(C(=O)CCl)[C@@H](C)CC2[C@@H]3C[C@H](F)C4=CC(=O)C=C[C@]4(C)[C@@]3(F)[C@@H](O)C[C@@]21C (some centres unmarked) [Form V, halobetasol propionate Form V] | about 90 °C |  |
| CCC(=O)O[C@]1(C(=O)CCl)[C@@H](C)CC2[C@@H]3C[C@H](F)C4=CC(=O)C=C[C@]4(C)[C@@]3(F)[C@@H](O)C[C@@]21C (some centres unmarked) [Form I, halobetasol propionate Form I] | 90 °C |  |
| CCC(=O)O[C@]1(C(=O)CCl)[C@@H](C)CC2[C@@H]3C[C@H](F)C4=CC(=O)C=C[C@]4(C)[C@@]3(F)[C@@H](O)C[C@@]21C (some centres unmarked) [Form IV, halobetasol propionate Form IV] | 120–130 °C | temperature of solid-solid phase transition under vacuum (heating under vacuum for about an hour or two): about 60 °C |
| CCC(=O)O[C@]1(C(=O)CCl)[C@@H](C)CC2[C@@H]3C[C@H](F)C4=CC(=O)C=C[C@]4(C)[C@@]3(F)[C@@H](O)C[C@@]21C (some centres unmarked) [Form VI, halobetasol propionate Form VI] | 150–170 °C |  |
| CCC(=O)O[C@]1(C(=O)CCl)[C@@H](C)CC2[C@@H]3C[C@H](F)C4=CC(=O)C=C[C@]4(C)[C@@]3(F)[C@@H](O)C[C@@]21C (some centres unmarked) [Form II, halobetasol propionate Form II] |  | temperature to which heated without converting to another crystalline or amorphous form and without significant decomposition (heating): ≤ 200 °C; transitions upon heating to melting temperature (hot stage microscopy): no detectable transitions |
